Earlier results on 2 molecules are cited in patent US20120302639A1, “OMEGA 3 FORMULATIONS FOR TREATMENT OF RISK FACTORS FOR CARDIOVASCULAR DISEASE AND PROTECTION AGAINST SUDDEN DEATH” (PIVOTAL THERAPEUTICS INC., priority 2011, published 2012).

For the data set the following is noted: ALOGPS, as reported by Tetko et al. 2005.

As for `CC/C=C\C/C=C\C/C=C\C/C=C\C/C=C\C/C=C\CCC(=O)O` [DHA, Docosahexaenoic acid], the “theoretical Log P” value is listed as 6.83.
For the molecule `CC/C=C\C/C=C\C/C=C\C/C=C\C/C=C\CCCC(=O)O` [EPA, Eicosapentaenoic acid], the “theoretical Log P” value is 6.53.
